5 compounds from US20150004704A1, “COMPOSITIONS AND METHODS FOR INCREASING OIL CONTENT IN ALGAE” (A.B. Seeds Ltd., priority 2009, published 2015) can be followed below.

Where “and” joins values, the source holds several entries; their conditions need not be identical. Equal entries are not always repeated.

Type in all cases: cell-based
Experiment [1] deals with Chlamydomonas reinhardtii. Kind of experiment: Oil content by Nile Red staining, C. reinhardtii with hormone supplements (Example 2). More on the design: Oil content: unit not given here. Conditions: for Oil content: Nile Red fluorescence; for Oil content / Normalized oil content: duplicates; for Average normalized oil content: average of duplicates; for Normalized oil content: oil content divided by cell density; for Effect: ratio of average normalized oil content to average of two controls. How it is done:
(§1) TX, and were grown at 22° C. under constant white light at an intensity of 175 micromole photon m^−2 s−1. Chlamydomonas reinhardtii (UTEX strain 90), Chlorella vulgaris (UTEX 2714) and Haematococcus pluvialis (UTEX strain 2505) were grown in TAP medium {Harris E H: The Chlamydomonas sourcebook: A comprehensive guide to biology and laboratory use. New-York: Academic Press; 1989}. Phaeodactylum tricornutum (UTEX strain 642) was grown in a modified LDM medium {Lewin, R. A., 1959. The isolation of algae. Rev. algol. no. 3: 182-197}.
(§2) Algae were grown to a concentration of 10^5 cells/ml and divided into 10×250-ml flasks, each containing 50 ml TAP medium with the following hormone supplements (all values are final hormone concentrations):
(§3) IAA: 0.5 mg/liter and 1 mg/liter, NAA: 0.5 mg/liter and 1 mg/liter, 6-BAP: 0.05 mg/liter and 0.1 mg/liter, and Kinetin: 0.05 mg/liter and 0.1 mg/liter. No supplement was added to Controls 1 and 2.
(§4) Oil content was measured, in duplicate, one week after addition of the hormones to the medium, using Nile Red staining. 200 μl of Chlamydomonas reinhardtii cells were placed in a 96-well plate (Costar 3596), mixed with 10 μl of Nile Red solution (N3013, Sigma. 1 mg/ml stock in acetone) and incubated for 15 minutes at room-temperature. Fluorescence was measured using a Thermo Electron Fluroskan Ascent with excitation at 544 nm and emission at 590 nm 200 μl of fresh growth media with 10 μl of Nile Red were used for blank measurements. Fluorescence was normalized against cell density as measured by an EL×808 microplate reader (BIOTEK Instruments Inc) at 450 nm and verified by cell count of selected samples.
(§5) The growth rate in each flask was estimated by measuring the OD (optical density, at 450 nm), which represents cell density. For each treatment the normalized oil content was defined as the oil content divided by the cell density. The average of the normalized oil content of the duplicates for each treatment was calculated. The effect of each treatment was determined by the ratio between the average of the normalized oil content and the average of the two control experiments.

The subject of experiment [2] is Chlamydomonas reinhardtii. Kind of experiment: Cell density (OD 450 nm), C. reinhardtii with hormone supplements (Example 2). Conditions: 1 week after addition, duplicates. On the procedure:
as §2, §3, §4, §5

For experiment [3], the system named is Chlamydomonas reinhardtii. Kind of experiment: Oil content by Nile Red staining with hormone supplements (Example 3). Conditions: 1 week, ratio to average of two controls, triplicate. On the procedure:
as §1
(§6) Algal cells of Chlamydomonas reinhardtii, Phaeodactylum tricornutum and Haematococcus pluvialis, were each grown to a concentration of 10^5 cells/ml and divided into 7×250-ml flasks, each containing 50 ml medium with the following supplements (all values are final hormone concentrations):
(§7) IAA: 1.0 mg/liter, NAA: 1.0 mg/liter, 2,4-D: 1.0 mg/liter, 6-BAP: 0.1 mg/liter, and Kinetin: 0.1 mg/liter.
(§8) Oil content was measured in triplicate 1 week after addition of the hormones to the medium, using Nile Red staining: 200 μl of algal cells were placed in a 96-well plate (Costar 3596), mixed with 10 μl of Nile Red solution (N3013, Sigma. 1 mg/ml stock in acetone) and incubated for 10 minutes at room-temperature. Fluorescence was measured using a Thermo Electron Fluroskan Ascent with excitation at 485 nm and emission at 590 nm 200 μl of fresh growth media with 10 μl of Nile Red were used for blank measurements. Fluorescence was normalized against cell density as measured by an EL×808 microplate reader (BIOTEK Instruments Inc) at 630 nm and verified by cell count of selected samples. For each treatment the normalized oil content was defined as the oil content divided by the cell density. The average of the normalized oil content of the triplicates for each treatment was calculated. The effect of each treatment was determined by the ratio between the average of the normalized oil content and the average of the two control experiments.

The test system of another experiment is Haematococcus pluvialis. The description is as above. To be noted: 1 week, ratio to average of two controls, triplicate. On the procedure: as §1, §6, §7, §8
The test system of experiment [4] is Phaeodactylum tricornutum. Described as above. Conditions: 1 week, ratio to average of two controls, triplicate. How it is done:
as §1, §6, §7, §8

For the compound `c1ccc(CNc2ncnc3nc[nH]c23)cc1` [6-BAP, 6-Benzylaminopurine], the Oil content in experiment [1] (supplement 0.05 mg/l, 1 week) was 2.709 and 2.587; in experiment [1] (supplement 0.1 mg/l, 1 week), 3.04 and 2.891. For the same compound, the figures for the “Average normalized oil content” value in experiment [1] (supplement 0.05 mg/l) and in experiment [1] (supplement 0.1 mg/l) were 9.41 and 10.65, respectively. Moreover, the Normalized oil content is 9.28 and 9.55 in experiment [1] (supplement 0.05 mg/l); 10.74 and 10.55 in experiment [1] (supplement 0.1 mg/l). Further, the Effect was 1.29 ± 0.02 in experiment [1] (supplement 0.05 mg/l) and 1.46 ± 0.02 in experiment [1] (supplement 0.1 mg/l). The Cell density is 0.29 and 0.27 in experiment [2] (supplement 0.05 mg/l); 0.28 and 0.27 in experiment [2] (supplement 0.1 mg/l). Further, the “Effect of addition of hormones to growth medium on oil content” value (“Effect of addition of hormones” for short) came to 1.22 ± 0.13 in experiment [3] (supplement 0.1 mg/l), 1.28 ± 0.20 in the experiment on Haematococcus pluvialis (supplement 0.1 mg/l) and 1.32 ± 0.20 in experiment [4] (supplement 0.1 mg/l).

As to `O=C(O)COc1ccc(Cl)cc1Cl` [2,4-D, 2,4-dichlorophenoxy acetic acid], the “Effect of addition of hormones” value in experiment [3] (supplement 1 mg/l) was found to be 1.21 ± 0.03; with Haematococcus pluvialis (supplement 1 mg/l), 1.69 ± 0.51; in experiment [4] (supplement 1 mg/l) it was 1.09 ± 0.04.

On to `O=C(O)Cc1c[nH]c2ccccc12` [IAA, Indole-3-acetic acid], for which the Oil content in experiment [1] (supplement 0.5 mg/l, 1 week) was 2.747 and 2.748; in experiment [1] (supplement 1.0 mg/l, 1 week), 3.283 and 3.635. Moreover, the results for the “Average normalized oil content” value in experiment [1] (supplement 0.5 mg/l) and in experiment [1] (supplement 1.0 mg/l) were 10.17 and 10.92, respectively. The Normalized oil content in experiment [1] (supplement 0.5 mg/l) was 9.57 and 10.78; in experiment [1] (supplement 1.0 mg/l), 9.89 and 11.96. Also, the Effect in experiment [1] (supplement 0.5 mg/l) worked out at 1.39 ± 0.11; in experiment [1] (supplement 1.0 mg/l), 1.49 ± 0.20. Besides, the Cell density in experiment [2] (supplement 0.5 mg/l) was 0.29 and 0.26; in experiment [2] (supplement 1.0 mg/l), 0.33 and 0.30. The “Effect of addition of hormones” value in experiment [3] (supplement 1 mg/l) stood at 1.05 ± 0.11; with Haematococcus pluvialis (supplement 1 mg/l), 0.96 ± 0.15; in experiment [4] (supplement 1 mg/l), 0.97 ± 0.04.

With `O=C(O)Cc1cccc2ccccc12` [NAA, α-Naphthaleneacetic acid], the Oil content in experiment [1] (supplement 0.5 mg/l, 1 week) was 2.677 and 2.59; in experiment [1] (supplement 1.0 mg/l, 1 week), 3.059 and 3.232. Further, the figures for the “Average normalized oil content” value in experiment [1] (supplement 0.5 mg/l) and in experiment [1] (supplement 1.0 mg/l) were 8.67 and 10.36, respectively. For the same compound, the Normalized oil content in experiment [1] (supplement 0.5 mg/l) is 8.44 and 8.90; in experiment [1] (supplement 1.0 mg/l) it was 9.84 and 10.88. The figures for the Effect in experiment [1] (supplement 0.5 mg/l) and in experiment [1] (supplement 1.0 mg/l) were 1.19 ± 0.04 and 1.42 ± 0.10, respectively. The Cell density in experiment [2] (supplement 0.5 mg/l) was 0.32 and 0.29; in experiment [2] (supplement 1.0 mg/l), 0.31 and 0.30. The “Effect of addition of hormones” value in experiment [3] (supplement 1 mg/l) amounted to 0.99 ± 0.01; in the experiment with Haematococcus pluvialis (supplement 1 mg/l), 1.49 ± 0.35; in experiment [4] (supplement 1 mg/l), 0.90 ± 0.07.

Consider `c1coc(CNc2ncnc3[nH]cnc23)c1` [Kinetin], for which, in experiment [1] (0.1 mg/liter, 1 week, maximum effect), the “increase compared to controls (oil content)” value is given as 67%. The Oil content in experiment [1] (supplement 0.05 mg/l, 1 week) is 3.023 and 3.071; in experiment [1] (supplement 0.1 mg/l, 1 week), 3.503 and 3.38. The “Average normalized oil content” value in experiment [1] (supplement 0.05 mg/l) is on record as 10.47; in experiment [1] (supplement 0.1 mg/l), 12.24. Also, the Normalized oil content was 9.85 and 11.09 in experiment [1] (supplement 0.05 mg/l); 11.91 and 12.57 in experiment [1] (supplement 0.1 mg/l). Also, the Effect stood at 1.43 ± 0.12 in experiment [1] (supplement 0.05 mg/l) and 1.67 ± 0.06 in experiment [1] (supplement 0.1 mg/l). Also, the Cell density is 0.31 and 0.28 in experiment [2] (supplement 0.05 mg/l); 0.29 and 0.27 in experiment [2] (supplement 0.1 mg/l). Further, the “Effect of addition of hormones” value in experiment [3] (supplement 0.1 mg/l) amounted to 1.23 ± 0.03; with Haematococcus pluvialis (supplement 0.1 mg/l), 1.09 ± 0.03; in experiment [4] (supplement 0.1 mg/l), 1.19 ± 0.02.
